Our source for the IC50 values is patent publication US10793522B2, “Sulfonamides as inhibitors of the uptake of extracellular citrate” (Boehringer Ingelheim International GmbH, priority 2016, dated 2020).

Assay [1] concerns the target T1, hSLC13A5 (Homo sapiens, UniProt Q86YT5). Put plainly: Recombinant hSLC13A5/14C-citrate uptake assay. Particulars: HEK293 Flp-In cells over-expressing hSLC13A5; WGA-PVT SPA beads; 14C-citrate approx. 2 μM; 4 h. It is filed as cell-based. The text has this:
(5) Recombinant hSLC13A5/^14C-Citrate Uptake Assay
The human embryonic kidney 293 (HEK 293)-Flp-In cells (293Flp-In-hSLC13A5) over-expressing hSLC13A5 transporter were cloned: The originating plasmid pcDNA3.1-hSLC13A5 containing hSLC13A5 was synthesized at GeneArt. The cDNA for hSLC13A5 was taken from this plasmid by means of PCR amplification using primers with added HindIII (N-terminal) and XhoI (C-terminal) restriction sites and sub-cloned in frame into pcDNA5/FRT from Invitrogen using the respective restriction enzymes. HEK293 Flp-In cells from Invitrogen were stably co-transfected using the pcDNA/FRT-hSLC13A5 plasmid as well as the pOG44 plasmid.
HEK 293-Flp-In cells are used that stably over-express hSLC13A5 transporter which is responsible for the uptake of citrate into these cells.
The uptake of ^14C-citrate into the 293Flp-In-hSLC13A5 cells is monitored using the WGA-PVT SPA (wheat germ agglutinin-polyvinyltoluene scintillation proximity assay) beads that bind to the 293Flp-In cells due to their WGA-PVT surface. This assay format is based on the imported radioactive citrate brought into proximity with the SPA beads by virtue of the biological processes within the cells. The radioactive decay is converted into a light signal that can be measured using e.g. the TopCount plate reader.
(§1) Method: ^14C-Citrate Uptake Assay
Test Compound Dilutions (2Fold-Concentrated):
Starting from 10 mM stock solutions in 100% DMSO, compounds are diluted in pure DMSO using the appropriate dilution steps.
Prior to the uptake assay, 200 μL assay medium (lx HBSS (with Ca^2+ and Mg^2+, w/o Phenolred), contains 5.56 mM D(+)-Glucose)+19.44 mM D(+)-Glucose (final concentration of D(+)-Glucose is 25 mM))+4.8 μL compound solution (or pure DMSO for non-inhibited control wells) are mixed (final DMSO concentration in the assay: 1% (v/v)).
After preparing the 2fold-concentrated test compound dilutions, 50 μL are pipetted to each well of white OptiPlates-96 and incubated at 37° C. in an incubator.
^14C-Citrate Working Solution (Volumes Required Per 96-Well):
The 293Flp-In-hSLC13A5 cells are cultivated in cell culture medium (DMEM+10% fetal calf serum+100 μg/mL Hygromycin B). The medium of the confluent cultures is discarded and the cells are washed with DPBS (w/o Mg^2+ w/o Ca^2+). The cells are detached by the addition of 2.0 mL Accumax per 75 cm^2 culture flask for up to 3 minutes at 37° C. and resuspended in 10 mL assay medium. After cell counting, 50,000 cells/well are administered in a volume of 50 μL into the white OptiPlates-96 containing the respective test compound concentrations. Following a 20 min incubation at 37° C. in the cell culture incubator, 20 μL of ^14C-citrate working solution is added to each well (final volume per well: 120 μL; final ^14C-citrate concentration: approx. 2 μM/well).
After incubation for 4 h at 37° C. in a humid cell culture incubator and the addition of 30 μL of WGA-PVT SPA beads to each well (0.25 mg/well), the plates are sealed on the top using a transparent plastic foil. Incubate the plates for 1 h by room temperature and gentle shaking.
After incubation, the plate is placed into the TopCount NXT HTS and the signal is recorded.
The performance of the test compounds is calculated as follows:
Wells containing cells incubated with 1% DMSO only deliver values for the non-inhibited ^14C-citrate uptake into 293Flp-In-hSLC13A5 cells (100% CTL). Wells containing cells which have received 30 mM non-labelled potassium citrate solution in addition to the ^14C-citrate working solution deliver values for the background (0% CTL).
(§2) The IC50 values of the compounds are calculated in IDBS XLfit by sigmoidal dose-response (variable slope).

The target of assay [2] is T1, hSLC13A5. The experiment in a line: HepG2/14C-citrate uptake assay. The assay is classed as cell-based. The arrangement: HepG2 cells endogenously express hSLC13A5 transporter which is responsible for the uptake of citrate into these cells; endogenous in cells; host or cells: HepG2. Particulars: HepG2 cells endogenously expressing hSLC13A5; Cytostar-T; 14C-citrate ~1.8 μM; incubation over night.
Excerpt: (4) HepG2/^14C-Citrate Uptake Assay
HepG2 cells endogenously expressing hSLC13A5 were obtained from the Wistar Institute (Knowles et al., Science 1980, 209, 497-499).
HepG2 cells endogenously express hSLC13A5 transporter which is responsible for the uptake of citrate into these cells. […] The uptake of ^14C-citrate into HepG2 cells is monitored using the Cytostar-T assay. This assay format is based on the imported radioactive citrate brought into proximity with the scintillant contained within the base of the plate by virtue of the biological processes within the cells. The radioactive decay is converted to a light signal based on the integration of the scintillation matrix into the assay plate.
as §1
Starting from 10 mM stock solutions in 100% DMSO, compounds are diluted in pure DMSO using the appropriate dilution steps. Prior to the uptake assay, 400 μL assay medium+4.8 μL compound solution (or pure DMSO for non-inhibited control wells) are mixed (final DMSO concentration in the assay: 1% (v/v)) ^14C-citrate working solution (volumes required per 96-well):
The HepG2 cells are cultivated in cell culture medium (EMEM+10% fetal calf serum+1×NEAA and 10 mM L-Glutamin) For the assay, the medium of the confluent cultures is discarded and the cells are washed with DPBS w/o Mg^2+ w/o Ca^2+. The cells are detached by the addition of 1.0 mL 2× Trypsin in DPBS w/o Mg^2+ w/o Ca^2+ with 7.5 mM EDTA per 75 cm^2 culture flask for up to 3 minutes at 37° C. and resuspended in 10 mL cell culture medium. Following cell counting, 100,000 cells/well are seeded in a volume of 200 μL into Cytostar-T Scintillating 96-well microplates. After overnight incubation in a humid cell culture incubator at 37° C., 5% CO2, the cell culture medium is carefully aspirated and the cells are incubated with 200 μL prewarmed (37° C.) assay medium (50% DMEM+50% Ham's F-12+15 mM HEPES (pH 7.4) (medium contains 15.5 m M D(+)-glucose) per well for at least 1 h prior to the experiment.
Immediately prior to uptake assay, the assay medium is carefully removed and 100 μL test compound dilution is added to each well (n=3).
Following a 20 min incubation at 37° C. in the cell culture incubator, 20 μL of ^14C-citrate working solution is added to each well (final volume per well: 120 μL; final ^14C-citrate concentration ˜1.8 μM/well)).
After incubation over night at 37° C. in the cell culture incubator, the plates are sealed on the top using a transparent plastic foil and on the bottom using a white plastic foil. Following the sealing, the plate is placed into the TopCount NXT HTS and the signal is recorded.
as §2

T1 sequence (Q86YT5 whole entry): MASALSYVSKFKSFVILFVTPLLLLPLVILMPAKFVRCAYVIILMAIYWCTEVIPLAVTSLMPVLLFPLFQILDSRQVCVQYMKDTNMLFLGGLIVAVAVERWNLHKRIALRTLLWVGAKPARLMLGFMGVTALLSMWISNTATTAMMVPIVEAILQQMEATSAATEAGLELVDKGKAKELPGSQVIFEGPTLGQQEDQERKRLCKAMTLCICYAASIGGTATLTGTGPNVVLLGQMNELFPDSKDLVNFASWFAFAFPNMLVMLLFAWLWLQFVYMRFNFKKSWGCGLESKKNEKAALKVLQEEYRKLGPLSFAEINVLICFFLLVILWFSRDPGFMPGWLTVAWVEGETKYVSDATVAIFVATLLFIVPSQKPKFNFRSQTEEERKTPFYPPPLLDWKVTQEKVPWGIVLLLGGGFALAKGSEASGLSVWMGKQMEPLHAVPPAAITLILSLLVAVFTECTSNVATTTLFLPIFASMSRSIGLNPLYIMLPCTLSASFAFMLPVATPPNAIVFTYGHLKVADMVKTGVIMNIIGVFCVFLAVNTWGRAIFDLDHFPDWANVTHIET

As usually defined, the IC50 is the concentration at which inhibition is half-maximal. `O=C(NCc1nccs1)C1CCN(S(=O)(=O)c2cc(Cl)cc(Cl)c2)CC1` [(I-9)]: the results for the IC50 on hSLC13A5 [1] and against hSLC13A5 [2] were 303 nM and 246 nM, respectively.

`O=C(NCc1ccc(Cl)cn1)C1CCN(S(=O)(=O)c2cc(Cl)cc(Cl)c2)CC1` [(I-12)]: the IC50 at hSLC13A5 [1] was determined as 132 nM; on hSLC13A5 [2] it was 103 nM.

For the molecule `COc1ncccc1CNC(=O)C1CCN(S(=O)(=O)c2cc(Cl)cc(Cl)c2)CC1` [(I-13)], the figures for the IC50 on hSLC13A5 [1] and at hSLC13A5 [2] were 475 nM and 201 nM, respectively.

On to `Cc1ccc(CNC(=O)C2CCN(S(=O)(=O)c3cc(Cl)cc(Cl)c3)CC2)cn1` [(I-16)], for which the IC50 on hSLC13A5 [1] is 675 nM; on hSLC13A5 [2] it was 632 nM.

Consider `CCc1ccc(CNC(=O)C2CCN(S(=O)(=O)c3cc(Cl)cc(Cl)c3)CC2)nc1` [(I-17)], for which the IC50 at hSLC13A5 [1] was determined as 138 nM; on hSLC13A5 [2], 130 nM.

Consider `N#Cc1ccc(CNC(=O)C2CCN(S(=O)(=O)c3cc(Cl)cc(Cl)c3)CC2)c(F)c1` [(I-23)], for which the half-maximal inhibitory concentration (IC50) on hSLC13A5 [1] worked out at 91 nM; against hSLC13A5 [2], 142 nM.

On to `O=C(NCc1cccc(Cl)n1)C1CCN(S(=O)(=O)c2cc(Cl)cc(Cl)c2)CC1` [(I-26)], for which the IC50 is 449 nM at hSLC13A5 [1] and 290 nM at hSLC13A5 [2].

Turning to `O=C(NCc1ccc(Br)cn1)C1CCN(S(=O)(=O)c2cc(Cl)cc(Cl)c2)CC1` [(I-28)], the IC50 came out at 127 nM on hSLC13A5 [1] and 171 nM at hSLC13A5 [2].

In the case of `CCc1ccc(CNC(=O)C2CCN(S(=O)(=O)c3cc(Br)cc(Br)c3)CC2)nc1` [(I-31)], the IC50 is 41 nM at hSLC13A5 [1] and 66 nM on hSLC13A5 [2].

`COc1ncccc1CNC(=O)C1CCN(S(=O)(=O)c2cc(Br)cc(Br)c2)CC1` [(I-33)]: the values for the IC50 on hSLC13A5 [1] and on hSLC13A5 [2] were 275 nM and 182 nM, respectively.

`O=C(NCc1ccc(F)cn1)C1CCN(S(=O)(=O)c2cc(Br)cc(Br)c2)CC1` [(I-35)]: the IC50 on hSLC13A5 [1] amounted to 54 nM; against hSLC13A5 [2], 147 nM.

For `O=C(NCc1cccnc1)C1CCN(S(=O)(=O)c2cc(Br)cc(Br)c2)CC1` [(I-36)], the values for the IC50 at hSLC13A5 [1] and against hSLC13A5 [2] were 354 nM and 448 nM, respectively.

In the case of `O=C(NCc1ccccn1)C1CCN(S(=O)(=O)c2cc(Br)cc(Br)c2)CC1` [(I-37)], the values for the half-inhibitory concentration (IC50) at hSLC13A5 [1] and against hSLC13A5 [2] were 89 nM and 253 nM, respectively.

For `O=C(NCc1ccc(F)cc1)C1CCN(S(=O)(=O)c2cc(Br)cc(Br)c2)CC1` [(I-40)], the IC50 came out at 26 nM on hSLC13A5 [1] and 17 nM against hSLC13A5 [2].

Consider `Cc1cc(C)cc(S(=O)(=O)N2CCC(C(=O)NCc3nc(C)cs3)CC2)c1` [(I-41)], for which the IC50 came to 438 nM on hSLC13A5 [1] and 155 nM against hSLC13A5 [2].

For the molecule `COc1ccccc1CNC(=O)C1CCN(S(=O)(=O)c2cc(C)cc(C)c2)CC1` [(I-44)], the IC50 on hSLC13A5 [1] was 703 nM; against hSLC13A5 [2], 132 nM.

Consider `Cc1cc(C)cc(S(=O)(=O)N2CCC(C(=O)NCc3ncc(C)s3)CC2)c1` [(I-46)], for which the results for the IC50 at hSLC13A5 [1] and at hSLC13A5 [2] were 398 nM and 202 nM, respectively.

Turning to `CCOc1cc(Cl)cc(S(=O)(=O)N2CCC(C(=O)NCc3ccc(C#N)cc3F)CC2)c1` [(I-50)], the concentration for half-maximal inhibition (IC50) was found to be 127 nM at hSLC13A5 [1] and 73 nM at hSLC13A5 [2].

Consider `CCOc1cc(Cl)cc(S(=O)(=O)N2CCC(C(=O)NCc3ccc(F)cc3)CC2)c1` [(I-51)], for which the IC50 at hSLC13A5 [1] amounted to 66 nM; against hSLC13A5 [2], 14 nM.

Regarding `CCOc1cc(Cl)cc(S(=O)(=O)N2CCC(C(=O)NCc3ccc(Cl)cn3)CC2)c1` [(I-52)], the values for the IC50 at hSLC13A5 [1] and at hSLC13A5 [2] were 200 nM and 51 nM, respectively.

In the case of `CCOc1cc(Cl)cc(S(=O)(=O)N2CCC(C(=O)NCc3ccccn3)CC2)c1` [(I-53)], the IC50 was determined as 410 nM on hSLC13A5 [1] and 110 nM at hSLC13A5 [2].

Consider `CCOc1cc(Cl)cc(S(=O)(=O)N2CCC(C(=O)NCc3ccc(C#N)cc3)CC2)c1` [(I-54)], for which the half-maximal inhibitory concentration (IC50) came to 231 nM at hSLC13A5 [1] and 62 nM on hSLC13A5 [2].

Take `CCOc1cc(Cl)cc(S(=O)(=O)N2CCC(C(=O)NCc3ccc(F)cn3)CC2)c1` [(I-55)]: the IC50 on hSLC13A5 [1] was determined as 189 nM; against hSLC13A5 [2] it was 56 nM.

Regarding `COc1cc(Cl)cc(S(=O)(=O)N2CCC(C(=O)NCc3ccc(F)cn3)CC2)c1` [(I-56)], the values for the IC50 on hSLC13A5 [1] and against hSLC13A5 [2] were 436 nM and 292 nM, respectively.

As to `COc1cc(Cl)cc(S(=O)(=O)N2CCC(C(=O)NCc3ccc(F)cc3)CC2)c1` [(I-57)], the IC50 on hSLC13A5 [1] is 167 nM; against hSLC13A5 [2], 48 nM.

In the case of `COc1ncccc1CNC(=O)C1CCN(S(=O)(=O)c2cc(C)cc(Br)c2)CC1` [(I-58)], the IC50 at hSLC13A5 [1] was found to be 837 nM; against hSLC13A5 [2], 168 nM.

On to `CCc1ccc(CNC(=O)C2CCN(S(=O)(=O)c3cc(C)cc(Br)c3)CC2)nc1` [(I-59)], for which the IC50 at hSLC13A5 [1] came to 98 nM; on hSLC13A5 [2], 27 nM.

As to `Cc1cc(Br)cc(S(=O)(=O)N2CCC(C(=O)NCc3cccnc3)CC2)c1` [(I-60)], the concentration for half-maximal inhibition (IC50) on hSLC13A5 [1] is 918 nM; on hSLC13A5 [2] it was 422 nM.

`Cc1cc(Br)cc(S(=O)(=O)N2CCC(C(=O)NCc3ccc(F)cn3)CC2)c1` [(I-62)]: the 50% inhibitory concentration (IC50) worked out at 232 nM at hSLC13A5 [1] and 99 nM on hSLC13A5 [2].
